Our source for the TGI and GI50 values is PubChem BioAssay (NCI).

As usually defined, the TGI is the concentration giving total growth inhibition. Higher therefore signals less potent growth arrest. For orientation: GI50 means the concentration giving 50% growth inhibition.

What all share (experiment): DTP human tumour cell line panel, 48 h
Test [1] concerns CCRF-CEM leukemia.
For test [2], the system named is COLO 205 colon.
Test [3] deals with HOP-62 NSCLC.
The subject of test [4] is LOX IMVI melanoma.
In test [5] the test system is MDA-MB-231 breast.
Test [6] deals with RPMI-8226 leukemia.
Test [7] has as its system SF-268 CNS.
In test [8] the test system is SNB-75 CNS.
Test [9] concerns UACC-62 melanoma.
Test [10] has as its system HCT-116 colon.

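A five-concentration, 48-hour dose response in 96-well plates underlies each endpoint, interpolated linearly between surrounding concentrations. The concentration for 50% growth inhibition is given as GI50. Definition used: TGI = concentration required for complete inhibition of growth.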 Some results are limits rather than exact numbers.

Consider `CN(C)c1ccc(/C=C/c2ccnc3ccccc23)cc1N`, for which the TGI in test [1] was above 100 µM; in test [2] it was 19.6 µM; in [3], 28.4 µM; in test [4] it was 32.6 µM; in test [5], 20.1 µM; in test [6], 15.5 µM. For the same molecule, the TGI in test [7] was determined as 23.2 µM; in test [8], 19.5 µM; in test [9], 25.9 µM.
For the molecule `N#Cc1c(-c2ccc(Cl)cc2)c(-c2ccc(Cl)cc2)nn(CCOC(=O)CCC(=O)O)c1=O`, the TGI in [1] is above 43.6 µM; in test [2] it was 2.57 µM; in [10], 4.01 µM; in test [3], 34.8 µM; in test [4], above 84.3 µM; in test [5] it was 28.6 µM. Moreover, the TGI in [6] is above 60 µM; in test [7], above 72.1 µM; in test [8], above 75.7 µM; in test [9], 47.7 µM.
Regarding `CCCC(=O)Nc1cc([N+](=O)[O-])c([N+](=O)[O-])cc1OC`, the TGI in test [1] was 51.4 µM; in test [2] it was 30.9 µM; in [10], 32.3 µM; in [3] it was 28.1 µM; in test [4], above 100 µM; in test [5] it was 38.9 µM. Further, the TGI in [6] amounted to 68.4 µM; in [7] it was 34.6 µM; in test [8], 30.3 µM; in test [9] it was 33.7 µM.
In the case of `CC(C)=CCc1ccc(O)c(=O)cc1C(C)C`, the GI50 is 0.485 µM in [1]; 3.27 µM in test [2]; 0.469 µM in test [10]; 0.685 µM in [3]; 0.327 µM in test [4]; 3.36 µM in test [5]. Also, the GI50 in test [6] is 0.673 µM; in [7], 0.671 µM; in test [8], 2.88 µM; in [9] it was 0.493 µM. For the same molecule, the TGI in test [1] was above 100 µM; in [2], above 100 µM; in test [10] it was above 100 µM; in [3], above 100 µM; in test [4], above 22.9 µM; in [5] it was above 100 µM. In addition, the TGI is above 91.3 µM in test [6], above 100 µM in [7], above 100 µM in test [8] and 4.38 µM in [9].
Consider `COC(=O)c1cc2c3ccccc3n3c(=O)c4cc5cc(OC)c(N(S(=O)(=O)c6ccc(C)cc6)S(=O)(=O)c6ccc(C)cc6)cc5nc4c(n1)c23`, for which the GI50 in test [2] was above 100 µM; in test [10], 13.5 µM; in [4], 23.5 µM; in [5] it was 9.62 µM; in test [7], 7.78 µM; in [8], 3.99 µM. Besides, the GI50 in test [9] is 24.9 µM. Further, the TGI is above 100 µM in test [2]; 59.7 µM in [10]; above 100 µM in test [4]; 32.3 µM in test [5]; above 100 µM in test [7]; 20.4 µM in test [8]. For the same molecule, the TGI in test [9] is above 100 µM.
Consider `O=C(CC(O)c1ccncc1)c1ccccc1` (stereo not drawn), for which the GI50 in [1] was 30.7 µM; in [2] it was 16.5 µM; in test [10] it was 19.3 µM; in [3], 31.7 µM; in [4], 20.9 µM; in test [5], 16.7 µM. Also, the GI50 in [6] is 17.9 µM; in test [7] it was 37.1 µM; in test [8], 17.8 µM; in test [9], 32 µM. The TGI in test [1] was above 100 µM; in test [2], 31.2 µM; in test [10] it was 54.6 µM; in test [3], above 100 µM; in [4] it was 49.5 µM; in test [5], 54.6 µM. Moreover, the TGI in test [6] was 62.6 µM; in test [7], above 100 µM; in [8], above 100 µM; in [9], above 100 µM.
Turning to `COc1ccc(Cn2cc3c(c2-c2ccc(O)cc2)CCc2cnoc2-3)cc1`, the GI50 in test [1] was 0.304 µM; in test [2] it was 0.577 µM; in test [10] it was 0.422 µM; in [3] it was 0.49 µM; in test [4], 0.713 µM; in [5], 0.699 µM. Moreover, the GI50 in test [6] is 0.365 µM; in test [7] it was 0.784 µM; in test [8] it was 0.221 µM; in test [9], 0.54 µM. Moreover, the TGI in test [1] worked out at 4.2 µM; in test [2], 2.01 µM; in [10] it was 14.7 µM; in test [3] it was 18.4 µM; in [4], 18.8 µM; in [5], 13.3 µM. Besides, the TGI came to 6.36 µM in test [6], 18.5 µM in test [7], 0.676 µM in test [8] and 17.6 µM in test [9].
As to `N#Cc1c(NC(=O)c2cccc3ccccc23)sc2c1CCCC2`, the GI50 is 0.0422 µM in test [1]; 0.0723 µM in test [2]; 0.0673 µM in [10]; 0.0825 µM in [3]; 0.0625 µM in [4]; 0.148 µM in test [5]. For the same molecule, the GI50 in [6] was 0.0872 µM; in [7], 0.171 µM; in test [8] it was 0.0351 µM; in test [9], 0.018 µM. Further, the TGI was above 25 µM in [1]; 0.193 µM in test [2]; 5.37 µM in [10]; above 25 µM in [3]; above 25 µM in test [4]; above 14.5 µM in [5]. For the same molecule, the TGI in [6], in test [7], in [8] and in [9] was above 25 µM each time.
Turning to `O=C(Nc1ccc(Cl)cc1)c1ccc([N+](=O)[O-])o1`, the GI50 is 4.11 µM in test [1]; 1.75 µM in [2]; 1.39 µM in test [10]; 1.49 µM in test [3]; 1.34 µM in [4]; 6.79 µM in test [5]. For the same molecule, the GI50 was 3.72 µM in [6], 2.98 µM in [7], 1.63 µM in [8] and 1.46 µM in test [9]. In addition, the TGI came out at 49.4 µM in test [1]; 3.18 µM in test [2]; 3.11 µM in test [10]; 3.27 µM in test [3]; 2.97 µM in test [4]; 47.2 µM in [5]. Also, the TGI in test [6] came out at 38.1 µM; in test [7] it was 11.8 µM; in test [8], 5.38 µM; in [9], 3.1 µM.
